Reference: patent US7786155B2, “Organic compounds” (Novartis AG, priority 2007, dated 2010)

Target: T1, recombinant human NPY Y2 receptors (Homo sapiens, UniProt P49146)
T1 construct: expressed in transfected cells; host or cells: CHO-C4 cells (membrane preparation)
T1 sequence (P49146 1-381): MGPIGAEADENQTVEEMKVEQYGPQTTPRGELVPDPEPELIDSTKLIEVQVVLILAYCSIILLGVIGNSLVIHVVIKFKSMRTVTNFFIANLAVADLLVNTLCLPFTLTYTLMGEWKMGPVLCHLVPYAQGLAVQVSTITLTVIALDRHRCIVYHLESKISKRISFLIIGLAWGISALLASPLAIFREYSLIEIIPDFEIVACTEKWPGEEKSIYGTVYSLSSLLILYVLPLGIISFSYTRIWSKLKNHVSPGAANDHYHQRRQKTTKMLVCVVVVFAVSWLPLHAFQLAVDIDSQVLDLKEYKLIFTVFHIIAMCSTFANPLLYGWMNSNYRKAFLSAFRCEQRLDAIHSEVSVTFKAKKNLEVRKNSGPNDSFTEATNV
Assay: Scintillation proximity [35S]GTPγS binding assay (inhibition of 0.5 nM NPY-stimulated [35S]GTPγS binding)
Assay type: biochemical
Conditions: 10 μM compound, membranes from CHO-C4 cells expressing recombinant human NPY Y2 receptors; for inhibition at 10 µM: read-out: [%] inhibiton at 10 μM
Experimental: Preparation of Membranes: CHO-C4 cells expressing recombinant human NPY Y2 receptors were used to prepare membranes for the GTPγS assay. Cells were grown to 80-95% confluency on 15-cm (225 cm^2) tissue culture plates. After aspiration of the culture medium, cells were washed twice with 18 ml ice-cold phosphate-buffered saline (PBS), scraped off and suspended in 3 ml ice-cold PBS in pre-cooled centrifuge tubes. The dishes were rinsed with 2 ml ice-old PBS per dish and the washings were combined with the PBS cell suspension from above. Cells pooled from 5-7 dishes were centrifuged for 5 min at 10,000 rpm (12,000 g) in a Sorvall RC5B centrifuge using an SS34 rotor at […]. The cell pellet was resuspended in 5 ml ice-cold buffer (20 mM HEPES, 10 mM EDTA; pH 7.4) by vortexing (2-5 sec), homogenized using a Polytron (step 4 for 20-30 sec), and ice-cold buffer added to 25 ml. The suspension was centrifuged again for 20 min at 18,000 rpm (39,000 g) at 4° C. and the pellet resuspended in 5 ml ice-cold buffer (20 mM HEPES, 0.1 mM EDTA; pH 7.4) by vortexing (2-5 sec), homogenized with a Polytron (step 4 for 10 sec), and ice-cold buffer added to 25 ml. The suspension was centrifuged a third time for 20 min at 18,000 rpm (39,000 g) at 4° C. The pellet was resuspend in 1 ml ice-cold buffer (20 mM Hepes, 0.1 mM EDTA; pH 7.4) by vortexing (5-8 sec). Two to five resuspended pellets were combined and homogenized using a Polytron (step 4 for 15-25 sec). A small aliquot (20-50 μl) was removed for protein determination by the Coomassie Plus Protein Assay Reagent (Pierce) using BSA as standard. The membrane suspension was aliquoted in precooled (on dry ice) Eppendorf tubes (0.25-1 ml/tube affording approximately 0.5-2 mg of membrane protein/tube). The pellets were frozen and stored at −80° C.
Scintillation proximity [^35S]GTPγS binding assay: Frozen membranes from CHO-C4 cells expressing recombinant human NPY Y2 receptors (2 mg for four 96-well plates) were thawed on ice. Thawed membranes were pipetted into 10 ml of assay buffer (20 mM HEPES, 10 mM MgCl2, 100 mM NaCl, pH 7.4) and homogenized briefly using a Polytron. The final assay mixture was prepared in 96-well microtiter plates (Isoplate Wallac, Perkin Elmer). The composition of the assay mixtures in a final volume of 250 μl per well was as follows: 20 mM HEPES, 10 mM MgCl2, 100 mM NaCl, pH 7.4, 30 μM GDP, 1 mg/ml BSA (added fresh), 5 μg membrane protein, 1.5 mg Wheatgerm agglutinin SPA beads (Amersham), 0.45 nM [^35S]GTPγS (Amersham, SJ1308, 1000 Ci/mmol, stabilized solution), and the test compounds (agonists and/or antagonists) at the appropriate concentrations. The samples were incubated at room temperature for 90 min by shaking, after which the SPA beads were sedimented by centrifugation in an Eppendorf 5804 centrifuge at 2700 rpm for 10 min at room temperature. After 60 min the plates were counted in a TopCount (Canberra). Basal [^35S]GTPγS binding was measured in the absence of agonist (NPY). Non-specific binding was measured in the presence of excess (10 μM) unlabelled GTPγS (Sigma). Nonspecific binding never exceeded 10% of basal binding and was thus not subtracted from the experimental data. Antagonists were tested for the inhibition of 0.5 nM NPY-stimulated [^35S]GTPγS binding. Antagonist inhibition curves were analyzed by non-linear regression using GraphPad Prism software (Version 4.0, GraphPad Software Inc., CA, USA).
Antagonistic activity of compounds of the present invention was examined by the Scintillation proximity [^35S]GTPγS binding assay as described above (inhibition of 0.5 nM NPY-stimulated [^35S]GTPγS binding). The table below represents percentages of inhibition at a concentration of 10 μM.

| inhibition at 10 µM [%] | [%] inhibiton at 10 μM [%] | Compound |
| --- | --- | --- |
| 34 |  | CC1=NC(c2ccccc2)(c2ccccc2)C(=O)N1CC(=O)c1ccc(C(=O)NC(C)C(C)C)cc1 (racemic) [Compound 1, (+/−)-N-(1,2-Dimethyl-propyl)-4-[2-(2-methyl-5-oxo-4,4-diphenyl-4,5-dihydro-imidazol-1-yl)-acetyl]-benzamide] |
| 99 |  | CCCC1(c2ccccc2)N=C(C)N(CC(=O)c2ccc(NC(=O)Nc3c(C)noc3C)cc2)C1=O (racemic) [Compound 6, (+/−)-1-(3,5-Dimethyl-isoxazol-4-yl)-3-{4-[2-(2-methyl-5-oxo-4-phenyl-4-propyl-4,5-dihydro-imidazol-1-yl)-acetyl]-phenyl}-urea] |
| 91 |  | CCCC1(c2ccc(F)cc2)N=C(C)N(CC(=O)c2ccc(NC(=O)Nc3c(C)noc3C)cc2)C1=O (racemic) [Compound 7, (+/−)-1-(3,5-Dimethyl-isoxazol-4-yl)-3-(4-{2-[4-(4-fluoro-phenyl)-2-methyl-5-oxo-4-propyl-4,5-dihydro-imidazol-1-yl]-acetyl}-phenyl)urea] |
| 68 |  | CCCC1(c2ccc(F)cc2)N=C(C)N(CC(=O)c2ccc(NC(=O)C(CC)CC)cc2)C1=O (racemic) [Compound 9, (+/−)-2-Ethyl-N-(4-{2-[4-(4-fluoro-phenyl)-2-methyl-5-oxo-4-propyl-4,5-dihydro-imidazol-1-yl]-acetyl}-phenyl)-butyramide] |
| 97 |  | CCCC1(c2ccccc2)N=C(C)N(CC(=O)c2ccc(NC(=O)Nc3c(C)noc3C)cc2F)C1=O (racemic) [Compound 10, (+/−)-1-(3,5-Dimethyl-isoxazol-4-yl)-3-{3-fluoro-4-[2-(2-methyl-5-oxo-4-phenyl-4-propyl-4,5-dihydro-imidazol-1-yl)-acetyl]-phenyl}-urea] |
| 96 |  | CCCC1(c2ccc(F)cc2)N=C(C)N(CC(=O)c2ccc(NC(=O)Nc3c(C)noc3C)cc2F)C1=O (racemic) [Compound 11, (+/−)-1-(3,5-Dimethyl-isoxazol-4-yl)-3-(3-fluoro-4-{2-[4-(4-fluoro-phenyl)-2-methyl-5-oxo-4-propyl-4,5-dihydro-imidazol-1-yl]acetyl}-phenyl)-urea] |
|  | 87 | CCCC1(c2ccc(F)cc2)N=C(C)N(CC(=O)c2ccc(NC(=O)Cc3c(C)noc3C)cc2F)C1=O (racemic) [Compound 17] |
|  | 70 | CCCC1(c2ccc(F)cc2)N=C(C)N(CC(=O)c2ccc(N(C)C(=O)N(C)c3c(C)noc3C)cc2F)C1=O (racemic) [Compound 18] |
| 45 |  | CCC(CC)C(=O)Nc1ccc(C(O)CN2C(=O)C(c3ccccc3)(c3ccccc3)N=C2C)cc1 (racemic) [Compound 26, (+/−)-2-Ethyl-N-{4-[1-hydroxy-2-(2-methyl-5-oxo-4,4-diphenyl-4,5-dihydro-imidazol-1-yl)-ethyl]-phenyl}-butyramide] |
|  | 92 | CCCC1(c2ccccc2)N=C(C)N(CC(=O)c2ccc(NC(=O)C(CC)CC)cc2)C1=O (single isomer, unassigned; (+)) [Compound 25] |
|  | 75 | CCCC1(c2ccc(F)cc2)N=C(C)N(CC(=O)c2ccc(NC(=O)Cc3c(C)noc3C)cc2F)C1=O (single isomer, unassigned; (+)) [Compound 36, (+)-2-(3,5-Dimethyl-isoxazol-4-yl)-N-(3-fluoro-4-{2-[4-(4-fluoro-phenyl)-2-methyl-5-oxo-4-propyl-4,5-dihydro-imidazol-1-yl]-acetyl}-phenyl)-acetamide] |
| 92 |  | CCCC1(c2ccc(F)cc2)N=C(C)N(CC(=O)c2ccc(NC(=O)Cc3c(C)noc3C)cc2F)C1=O (single isomer, unassigned; (-)) [Compound 35, (−)-2-(3,5-Dimethyl-isoxazol-4-yl)-N-(3-fluoro-4-{2-[4-(4-fluoro-phenyl)-2-methyl-5-oxo-4-propyl-4,5-dihydro-imidazol-1-yl]-acetyl}-phenyl)acetamide] |
| 46 |  | CCC(CC)C(=O)Nc1ccc(CCN2C(=O)C(c3ccccc3)(c3ccccc3)N=C2C)cc1 [Compound 4, 2-Ethyl-N-{4-[2-(2-methyl-5-oxo-4,4-diphenyl-4,5-dihydro-imidazol-1-yl)ethyl]-phenyl}-butyramide] |
| 35 |  | CC1=NC(c2ccccc2)(c2ccccc2)C(=O)N1CCc1ccc(NC(=O)CC(C)C)cc1 [Compound 5, 3-Methyl-N-{4-[2-(2-methyl-5-oxo-4,4-diphenyl-4,5-dihydro-imidazol-1-yl)-ethyl]-phenyl}-butyramide] |
|  | 39 | CCCC1(c2ccc(F)cc2)N=C(C)N(CC(=O)c2ccc(NC(=O)C3CCOC3)cc2F)C1=O (stereo not drawn) [Compound 14, Tetrahydro-furan-3-carboxylic acid (34-fluoro-4-{2-[4-(4-fluoro-phenyl)-2-methyl-5-oxo-propyl-4,5-dihydro-imidazol-1-yl]-acetyl}-phenyl)-amide] |
| 42 |  | CCCC1(c2ccccc2)N=C(C)N(CC(=O)c2ccc(NC(=O)C3CCOC3)cc2F)C1=O (stereo not drawn) [Compound 15, Tetrahydro-furan-3-carboxylic acid {3-fluoro-4-[2-(2-methyl-5-oxo-4-phenyl-4-propyl-4,5-dihydro-imidazol-1yl)-acetyl]-phenyl}-amide] |
| 28 |  | CCCC1(c2ccc(F)cc2)N=C(C)N(CC(=O)c2ccc(NC(=O)C3CCOC3)cc2)C1=O (stereo not drawn) [Compound 16, Tetrahydro-furan-3-carboxylic acid (4-{2-[4-(4-fluoro-phenyl)-2-methyl-5-oxo-4-propyl-4,5-dihydro-imidazol-1-yl]-acetyl}-phenyl)-amide] |
| 61 |  | CC1=NC(c2ccccc2)(c2ccccc2)C(=O)N1CC(=O)c1ccc(NC(=O)c2ccccc2F)cc1 [Compound 21, 2-Fluoro-N-{4-[2-(2-methyl-5-oxo-4,4-diphenyl-4,5-dihydro-imidazol-1-yl)-acetyl]-phenyl}-benzamide] |
| 55 |  | CC1=NC(c2ccccc2)(c2ccccc2)C(=O)N1CC(=O)c1ccc(NC(=O)Cc2ccccc2C)cc1 [Compound 22, N-{4-[2-(2-Methyl-5-oxo-4,4-diphenyl-4,5-dihydro-imidazol-1-yl)-acetyl]-phenyl}-2-o-tolyl-acetamide] |
| 46 |  | COc1ccccc1C(=O)Nc1ccc(C(=O)CN2C(=O)C(c3ccccc3)(c3ccccc3)N=C2C)cc1 [Compound 23, 2-Methoxy-N-{4-[2-(2-methyl-5-oxo-4,4-diphenyl-4,5-dihydro-imidazol-1-yl)-acetyl]-phenyl}-benzamide] |
| 100 |  | CC1=NC(c2ccccc2)(c2ccccc2)C(=O)N1CC(=O)c1ccc(NC(=O)Nc2c(C)noc2C)cc1 [Compound 27, 1-(3,5-Dimethyl-isoxazol-4-yl)-3-{4-[2-(2-methyl-5-oxo-4,4-diphenyl-4,5-dihydro-imidazol-1-yl)-acetyl]-phenyl}-urea] |
